The source made the active and inactive calls.
Experiments:
[1] = inhibitors of clade B AD8 Env fusion, dose response, cell-based, cherry-pick (AID 652062); format: functional;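 further: luciferase signal from cell-cell fusion driven by HIV-1 clade B AD8 Env; potency is for inhibitors of fusion seen as a drop in luminescence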
[2] = ZM109 Env clade C HIV-1 fusion inhibitors, dose response, HeLa effector, CEM target cells, luciferase, cherry-pick (AID 652058); format: functional, cell-based
[3] = off-target signal loss in HeLa-CEM21 co-culture – HeLa F-luc CTL cells, cherry-picked, counter-screen for HIV-1 Env fusion inhibitor project, dose response (AID 652040); format: functional, cell-based;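 further: potency for signal decrease marking cytotoxic or nonspecific inhibition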
[4] = target: Mu-type opioid receptor (Homo sapiens, UniProt P35372); format: functional, cell-based;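 further: U2OS cells with beta-arrestin recruitment to OPRM1 by beta-gal complementation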
Mu-type opioid receptor, sequence (P35372 whole entry): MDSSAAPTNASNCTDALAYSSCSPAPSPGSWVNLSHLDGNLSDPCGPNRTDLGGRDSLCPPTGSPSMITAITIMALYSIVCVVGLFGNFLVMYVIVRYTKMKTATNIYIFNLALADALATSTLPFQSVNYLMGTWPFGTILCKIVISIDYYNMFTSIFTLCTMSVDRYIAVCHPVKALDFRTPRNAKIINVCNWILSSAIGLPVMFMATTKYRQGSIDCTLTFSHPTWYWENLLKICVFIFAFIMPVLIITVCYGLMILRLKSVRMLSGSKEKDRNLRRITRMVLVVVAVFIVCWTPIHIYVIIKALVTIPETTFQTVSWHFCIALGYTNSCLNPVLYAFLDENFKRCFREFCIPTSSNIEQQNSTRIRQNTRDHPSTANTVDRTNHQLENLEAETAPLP

[5] = target: 5-hydroxytryptamine receptor 2A (Mus musculus, UniProt P35363); format: functional, cell-based;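 further: CHO-K1 cells with tagged receptor and beta-arrestin; agonist potency measured as compound-induced activation of the receptor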
5-hydroxytryptamine receptor 2A, sequence (P35363 whole entry): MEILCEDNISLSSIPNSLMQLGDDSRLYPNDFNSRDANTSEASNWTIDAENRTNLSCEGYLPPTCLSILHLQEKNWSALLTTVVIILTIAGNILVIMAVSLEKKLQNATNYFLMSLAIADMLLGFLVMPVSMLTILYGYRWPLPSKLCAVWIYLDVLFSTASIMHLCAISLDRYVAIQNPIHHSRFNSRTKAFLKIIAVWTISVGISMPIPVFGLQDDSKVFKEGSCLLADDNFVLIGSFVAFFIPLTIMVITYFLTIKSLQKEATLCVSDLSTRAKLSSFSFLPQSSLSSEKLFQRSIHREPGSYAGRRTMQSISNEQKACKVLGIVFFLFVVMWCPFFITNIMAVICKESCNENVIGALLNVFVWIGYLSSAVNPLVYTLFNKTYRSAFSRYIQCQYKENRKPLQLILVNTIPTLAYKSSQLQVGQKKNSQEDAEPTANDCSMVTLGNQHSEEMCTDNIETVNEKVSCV

[6] = Luminescence Cell-Based Dose Retest to Confirm Inhibitors of Cancer Stem Cells. [Related pubchem assays (depositor defined):AID2717, AID2721]; format: functional; settings: Homo sapiens
[7] = target: Paired box protein Pax-8 (Homo sapiens, UniProt Q06710); assay: inhibitors of PAX8-driven TPO luciferase reporter, dose response, RMG-I cells, cherry-pick (AID 687027); format: functional, cell-based;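 further: luciferase reporter driven by Pax8 target thyroperoxidase promoter measured by SteadyGlo luminescence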
Paired box protein Pax-8, sequence (Q06710 whole entry, the tested form may be a part): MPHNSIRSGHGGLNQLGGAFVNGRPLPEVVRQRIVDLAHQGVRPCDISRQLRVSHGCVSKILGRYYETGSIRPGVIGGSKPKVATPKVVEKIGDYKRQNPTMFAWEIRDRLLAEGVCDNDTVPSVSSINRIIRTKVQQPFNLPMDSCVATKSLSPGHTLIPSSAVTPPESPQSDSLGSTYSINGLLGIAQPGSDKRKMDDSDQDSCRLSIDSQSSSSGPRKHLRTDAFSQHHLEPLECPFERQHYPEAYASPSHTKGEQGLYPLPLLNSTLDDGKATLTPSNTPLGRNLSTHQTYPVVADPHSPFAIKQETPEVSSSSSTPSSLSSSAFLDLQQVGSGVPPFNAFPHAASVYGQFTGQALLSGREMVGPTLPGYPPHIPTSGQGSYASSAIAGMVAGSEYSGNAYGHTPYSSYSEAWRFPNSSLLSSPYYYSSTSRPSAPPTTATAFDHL

[8] = inhibitors of HIV Env-driven cell fusion, dose response, cherry-pick (AID 652057); format: functional, cell-based
[9] = tested on: BJ; assay: cytotoxicity toward Ras-transformed BJeLR fibroblasts, dose response, cell-based, alamar blue fluorescence, cherrypicked samples (AID 2631); format: functional; settings: Homo sapiens;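 further: confirmatory dose-response assay in RAS-dependent BJ fibroblasts engineered with TERT, LT and ST, with cytotoxicity read by fluorescence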
[10] = tested on: BJ; assay: cytotoxicity toward BJ-TERT fibroblasts, dose response, cell-based, RAS-independent, luminescence (AID 1933); format: functional; settings: Homo sapiens
[11] = cytotoxicity toward DRD oncogenic fibroblasts, dose response, cell-based, non-viral oncogenic, luminescence (AID 1934); format: functional; settings: Homo sapiens
[12] = tested on: BJ; assay: cells; format: functional, cell-based; settings: Homo sapiens
[13] = tested on: BJ; assay: cytotoxicity toward BJ-TERT-LT-ST fibroblasts, dose response, cell-based, RAS-independent, luminescence (AID 1935); format: functional; settings: Homo sapiens;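 further: BJ fibroblasts immortalized with TERT plus LT and ST oncogenes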
[14] = miR-122 activators in hepatoma reporter cells, dose response, cell-based, Huh7 psiCHECK-miR122, Renilla luciferase, cherry-picked (AID 651956); format: functional;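 further: huh7 hepatoma cells stably carrying a psiCHECK-2 miR-122 sensor plasmid; renilla luciferase signal reporting endogenous miR-122 activity after 48 h compound exposure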
[15] = target: Heat shock protein HSP 90-alpha (Homo sapiens, UniProt P07900); format: functional, organism-based
[16] = target: T1, Replicative DNA helicase DnaB (Mycobacterium tuberculosis, UniProt P9WMR3); assay: DnaB intein splicing inhibitors, dose response, biochemical, cell-free fluorescence (AID 449749); format: functional
T1 sequence (P9WMR3 whole entry): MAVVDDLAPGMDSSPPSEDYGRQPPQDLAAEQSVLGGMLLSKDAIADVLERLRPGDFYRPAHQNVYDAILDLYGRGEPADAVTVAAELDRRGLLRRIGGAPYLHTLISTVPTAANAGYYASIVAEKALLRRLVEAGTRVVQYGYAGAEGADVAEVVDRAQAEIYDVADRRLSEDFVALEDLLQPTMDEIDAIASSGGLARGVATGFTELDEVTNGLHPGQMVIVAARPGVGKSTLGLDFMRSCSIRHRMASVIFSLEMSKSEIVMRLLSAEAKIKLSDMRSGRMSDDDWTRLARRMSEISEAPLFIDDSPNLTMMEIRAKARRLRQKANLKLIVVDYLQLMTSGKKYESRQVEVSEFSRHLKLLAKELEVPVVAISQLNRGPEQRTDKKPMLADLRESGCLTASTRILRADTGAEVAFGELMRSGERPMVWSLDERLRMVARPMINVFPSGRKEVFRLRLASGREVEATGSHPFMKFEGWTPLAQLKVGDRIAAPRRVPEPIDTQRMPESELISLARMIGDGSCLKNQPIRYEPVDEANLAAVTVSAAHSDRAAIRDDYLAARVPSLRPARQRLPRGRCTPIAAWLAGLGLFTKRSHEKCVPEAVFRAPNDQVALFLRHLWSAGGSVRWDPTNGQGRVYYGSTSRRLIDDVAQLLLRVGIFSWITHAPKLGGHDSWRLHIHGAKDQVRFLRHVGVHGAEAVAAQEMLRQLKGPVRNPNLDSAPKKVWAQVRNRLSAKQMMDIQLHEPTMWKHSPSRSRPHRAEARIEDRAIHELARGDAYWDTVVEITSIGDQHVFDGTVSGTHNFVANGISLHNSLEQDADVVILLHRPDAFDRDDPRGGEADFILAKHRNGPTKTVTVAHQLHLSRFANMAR

[17] = cytotoxicity toward NIH3T3 fibroblasts, dose response, counter-screen, cell-based, ATP luminescence, mouse fibroblasts (AID 2010); format: functional;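 further: cells exposed to compound for about 90 hours before reading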
[18] = inhibitors of intracellular T. cruzi replication, confirmation, NIH3T3 host cells, beta-gal luminescence (AID 2044); format: functional, cell-based;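 further: intracellular parasites grown in NIH/3T3 mouse fibroblasts as host cells; luminescent beta-galactosidase reporter signal from transgenic T. cruzi replicating inside host cells; inhibitors lower the luminescence signal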
[19] = target: Genome polyprotein (dengue virus type 2, UniProt P29990); assay: Dengue-2 NS5 methyltransferase inhibitors, primary screen, biochemical, confirmation dose response (AID 588689); format: functional
Genome polyprotein, sequence (P29990 2492-3391 limits assumed): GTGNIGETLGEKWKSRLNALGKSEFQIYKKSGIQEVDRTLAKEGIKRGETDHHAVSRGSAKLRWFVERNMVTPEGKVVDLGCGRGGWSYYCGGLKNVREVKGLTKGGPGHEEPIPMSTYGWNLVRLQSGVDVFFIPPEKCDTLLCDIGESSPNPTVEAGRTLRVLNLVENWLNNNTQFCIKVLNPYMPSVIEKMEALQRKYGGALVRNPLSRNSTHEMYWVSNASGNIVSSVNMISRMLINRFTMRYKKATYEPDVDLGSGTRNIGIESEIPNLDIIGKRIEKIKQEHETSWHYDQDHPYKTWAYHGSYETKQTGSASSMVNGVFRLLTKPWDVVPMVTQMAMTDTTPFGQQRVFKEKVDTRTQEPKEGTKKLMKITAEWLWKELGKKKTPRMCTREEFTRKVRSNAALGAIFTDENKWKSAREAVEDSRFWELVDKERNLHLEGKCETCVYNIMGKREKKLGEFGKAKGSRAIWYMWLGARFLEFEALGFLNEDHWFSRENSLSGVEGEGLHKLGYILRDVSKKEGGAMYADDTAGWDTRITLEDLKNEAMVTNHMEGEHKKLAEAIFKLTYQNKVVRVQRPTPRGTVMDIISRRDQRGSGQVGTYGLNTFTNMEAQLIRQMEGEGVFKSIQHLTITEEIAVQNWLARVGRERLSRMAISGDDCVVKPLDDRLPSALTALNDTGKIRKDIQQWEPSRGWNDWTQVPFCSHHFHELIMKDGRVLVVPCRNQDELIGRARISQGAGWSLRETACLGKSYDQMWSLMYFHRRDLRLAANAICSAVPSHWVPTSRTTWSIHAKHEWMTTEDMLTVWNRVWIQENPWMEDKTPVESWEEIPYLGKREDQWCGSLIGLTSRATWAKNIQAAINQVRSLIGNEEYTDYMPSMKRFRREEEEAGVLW

[20] = tested on: Vero; assay: Vero cell cytotoxicity, cytotoxicity control for flavivirus capping enzyme inhibitors (AID 588742); format: functional; settings: Chlorocebus sabaeus
[21] = target: T2, Protein RecA (Mycobacterium tuberculosis, UniProt P9WHJ3); assay: Fluorescence Cell-Free Homogeneous Dose Retest to Identify Inhibitors of RecA-Intein Splicing Activity. [Related pubchem assays (depositor defined):AID2097, AID2223, AID489010, AID492950]; format: functional
T2 sequence (P9WHJ3 whole entry): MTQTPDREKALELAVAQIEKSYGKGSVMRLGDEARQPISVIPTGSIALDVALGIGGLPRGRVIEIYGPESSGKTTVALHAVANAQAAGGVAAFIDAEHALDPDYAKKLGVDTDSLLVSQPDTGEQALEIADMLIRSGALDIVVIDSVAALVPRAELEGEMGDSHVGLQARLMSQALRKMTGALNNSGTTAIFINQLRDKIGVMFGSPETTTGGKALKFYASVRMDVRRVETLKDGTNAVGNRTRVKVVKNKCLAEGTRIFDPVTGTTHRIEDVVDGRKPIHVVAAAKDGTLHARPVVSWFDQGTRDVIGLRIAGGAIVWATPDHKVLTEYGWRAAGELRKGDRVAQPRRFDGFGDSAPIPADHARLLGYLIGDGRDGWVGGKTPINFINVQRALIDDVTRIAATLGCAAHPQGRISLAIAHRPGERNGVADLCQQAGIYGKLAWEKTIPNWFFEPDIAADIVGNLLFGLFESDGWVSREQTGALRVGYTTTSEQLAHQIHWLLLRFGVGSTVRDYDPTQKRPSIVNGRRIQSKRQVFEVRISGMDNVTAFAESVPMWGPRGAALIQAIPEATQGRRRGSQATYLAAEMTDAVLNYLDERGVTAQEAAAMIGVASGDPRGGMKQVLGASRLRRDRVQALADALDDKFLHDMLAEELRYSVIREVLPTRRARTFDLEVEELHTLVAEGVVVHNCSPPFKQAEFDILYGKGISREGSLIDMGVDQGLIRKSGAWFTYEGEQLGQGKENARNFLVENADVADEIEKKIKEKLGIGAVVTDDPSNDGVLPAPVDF

[22] = target: Cytochrome P450 2C9 (Homo sapiens, UniProt P11712)
Cytochrome P450 2C9, sequence (P11712 whole entry): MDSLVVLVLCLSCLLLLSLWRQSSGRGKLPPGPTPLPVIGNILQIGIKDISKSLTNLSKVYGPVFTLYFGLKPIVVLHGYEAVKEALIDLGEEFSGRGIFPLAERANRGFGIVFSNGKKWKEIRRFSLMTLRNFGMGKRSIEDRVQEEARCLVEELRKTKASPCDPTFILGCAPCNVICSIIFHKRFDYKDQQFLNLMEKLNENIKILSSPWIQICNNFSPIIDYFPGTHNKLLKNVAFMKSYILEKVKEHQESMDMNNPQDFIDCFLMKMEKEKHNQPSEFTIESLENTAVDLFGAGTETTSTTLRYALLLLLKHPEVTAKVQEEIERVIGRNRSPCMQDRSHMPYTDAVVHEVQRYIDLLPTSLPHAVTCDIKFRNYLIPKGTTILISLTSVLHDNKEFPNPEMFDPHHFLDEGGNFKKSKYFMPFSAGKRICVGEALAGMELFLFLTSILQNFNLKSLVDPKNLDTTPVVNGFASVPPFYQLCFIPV

CNc1nc2c(c(=O)n(C)c(=O)n2C)n1Cc1ccccc1
AC50 [1]: 13.9 µM (active) | AC50 [2]: 10.2 µM (active) | AC50 [3]: > 70 µM (inactive)

CCCCN(CC)CCCNC(=O)CC1Oc2ccccc2NC1=O (stereo not drawn)
EC50 [4]: 92.5 µM (inactive) | EC50 [5]: 3.3 µM (active)

CC[C@@]1(O)C(=O)OCc2c1cc1n(c2=O)Cc2cc3c(NC(=O)CN)cccc3nc2-1
AC50 [1]: 14.6 µM (active) | AC50 [6]: 0.281 µM (active) | AC50 [7]: 1.11 µM (active) | AC50 [8]: 0.618 µM (active) | AC50 [2]: < 0.26 µM (active) | EC50 [9]: 0.418 µM (active) | AC50 [3]: 0.896 µM (active) | EC50 [10]: 10.3 µM (active) | EC50 [11]: 2.4 µM (active) | EC50 [12]: 1.46 µM (active) | EC50 [13]: 1.2 µM (active)

Nc1ccc(Oc2ccc(Br)cc2)cc1
AC50 [14]: 0.378 µM (active)

O=C(c1cccs1)N1CCN(Cc2ccccc2)CC1
EC50 [4]: 92.4 µM (inactive) | EC50 [5]: 1.02 µM (active)

Cc1ccc(CSc2nc3ccsc3c(=O)n2Cc2ccccn2)cc1
AC50 [15]: 5 µM (active)

Cn1nc([N+](=O)[O-])c(C(C#N)c2ccccn2)c(Cl)c1=O (stereo not drawn)
AC50 [6]: 5.48 µM (active) | AC50 [16]: 25.8 µM (active) | EC50 [17]: > 30 µM (not active) | EC50 [18]: 4.82 µM (active) | IC50 [19]: 26.5 µM (active) | CC50 [20]: 12 µM (active) | EC50 [21]: 9.8 µM (active)

CN(C)/C=C/C(=O)c1ccc(Oc2ccccc2)cc1
AC50 [15]: 4.26 µM (active)

CCC(C)(C)n1nnnc1C(C(C)C)N(Cc1ccco1)Cc1cc2cc3c(cc2nc1O)OCO3 (stereo not drawn)
AC50 [22]: inconclusive | CC50 [20]: > 40 µM (active)

COc1ccccc1C(=O)NC(CCSC)C(=O)N1CCN(C/C=C/c2ccccc2)CC1 (stereo not drawn)
AC50 [1]: 12.8 µM (active) | AC50 [8]: 4.51 µM (active) | AC50 [2]: 2.79 µM (active) | AC50 [3]: 10.7 µM (active)

CCCC#Cc1ccc2c(c1)O[C@H](CN(C)C(=O)COC)[C@H](C)CN([C@@H](C)CO)S2(=O)=O
AC50 [14]: 1.19 µM (active)

C[C@@H]1CN([C@H](C)CO)S(=O)(=O)c2ccc(-c3ccccc3)cc2O[C@@H]1CN(C)C(=O)c1ccc2c(c1)OCO2
AC50 [14]: 27.2 µM (active)

Cc1ccc(S(=O)(=O)Nc2ccc3c(c2)CC(=O)N([C@H](C)CO)C[C@H](C)[C@H](CN(C)S(=O)(=O)c2ccccc2)O3)cc1
AC50 [1]: 3.38 µM (active) | AC50 [8]: 0.877 µM (active) | AC50 [2]: 2.46 µM (active)

CCCN(CCC)C1CCc2cccc(O)c2C1 (stereo not drawn)
EC50 [4]: 92.5 µM (inactive) | EC50 [5]: 2.3 µM (active)

CC(C(=O)O)c1ccc(C(=O)c2cccs2)cc1 (stereo not drawn) [SUPROFEN]
EC50 [4]: 92.6 µM (inactive) | EC50 [5]: 5.34 µM (active)

— ChEMBL document CHEMBL1201862, “PubChem BioAssay data set” (2004)
